This is an account of results in US5753675A, “Quinoline analogs of mevalonolactone and derivatives thereof” (Novartis Pharmaceuticals Corporation, priority 1990, dated 1998).

The structures appear in SMILES notation. Where two headings read alike, the source gives them in different places.

One experiment has as its target T1, HMG-CoA reductase (Rattus norvegicus, UniProt P51639).
T1 construct: rat liver microsomal suspensions, freshly prepared from male Sprague-Dawley rats; from tissue; host or cells: rat liver microsomes (male Sprague-Dawley, 150-225 g)
T1 sequence (P51639 1-887): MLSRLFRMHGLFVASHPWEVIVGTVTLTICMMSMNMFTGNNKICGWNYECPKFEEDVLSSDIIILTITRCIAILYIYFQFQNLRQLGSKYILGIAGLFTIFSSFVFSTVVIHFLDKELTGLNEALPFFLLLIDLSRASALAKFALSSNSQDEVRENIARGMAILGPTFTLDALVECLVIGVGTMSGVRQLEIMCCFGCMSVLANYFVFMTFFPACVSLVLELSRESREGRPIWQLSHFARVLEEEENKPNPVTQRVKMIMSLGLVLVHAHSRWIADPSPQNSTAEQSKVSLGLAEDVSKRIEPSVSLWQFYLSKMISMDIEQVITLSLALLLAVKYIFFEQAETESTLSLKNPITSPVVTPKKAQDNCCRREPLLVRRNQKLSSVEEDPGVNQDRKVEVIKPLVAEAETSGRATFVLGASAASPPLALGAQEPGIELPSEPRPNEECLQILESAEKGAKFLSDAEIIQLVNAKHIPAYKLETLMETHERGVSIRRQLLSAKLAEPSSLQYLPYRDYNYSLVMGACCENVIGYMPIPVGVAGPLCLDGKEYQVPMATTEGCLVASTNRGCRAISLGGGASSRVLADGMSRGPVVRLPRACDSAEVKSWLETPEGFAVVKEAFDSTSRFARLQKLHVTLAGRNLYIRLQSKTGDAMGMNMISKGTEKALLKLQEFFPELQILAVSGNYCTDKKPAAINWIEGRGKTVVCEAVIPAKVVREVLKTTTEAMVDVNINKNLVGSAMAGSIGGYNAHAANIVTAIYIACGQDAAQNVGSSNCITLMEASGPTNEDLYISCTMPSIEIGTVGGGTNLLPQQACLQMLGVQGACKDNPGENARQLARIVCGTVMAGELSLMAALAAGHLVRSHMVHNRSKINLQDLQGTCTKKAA
As to the kind of experiment: Test A. In Vitro Microsomal Assay of HMG-CoA Reductase Inhibition. It counts as biochemical. Conditions: rat liver microsomal suspensions, [14C]HMG-CoA substrate; test concentrations 0.05-1000 μmolar; read-out: IC50 (concentration calculated to produce a 50% inhibition of HMG-CoA reductase activity). Here is the method: Test A. In Vitro Microsomal Assay of HMG-CoA Reductase Inhibition:
200 μl. aliquots (1.08-1.50 mg./ml.) of rat liver microsomal suspensions, freshly prepared from male Sprague-Dawley rats (150-225 g. body weight), in Buffer A with 10 mmol. dithiothreitol are incubated with 10 μl. of a solution of the test substance in dimethylacetamide and assayed for HMG-CoA reductase activity as described in Ackerman et al., J. Lipid Res. 18, 408-413 (1977). In the assay the microsomes are the source of the HMG-CoA reductase enzyme which catalyzes the reduction of HMG-CoA to mevalonate. The assay employs a chloroform extraction or a Dowex® 1X8 (200-400 mesh, formate form) ion exchange column to separate the product, [^14 C]mevalonolactone, formed by the HMG-CoA reductase reduction of the substrate, [^14 C]HMG-CoA. [^3 H]mevalonolactone is added as an internal reference. Inhibition of HMG-CoA reductase is calculated from the decrease in specific activity ([^14 C/^3 H]mevalonate) of test groups compared to controls.
IC50 is the concentration of the test substance in the assay system calculated to produce a 50% inhibition of HMG-CoA reductase activity. The tests are run at concentrations of test substance between 0.05 and 1000 μmolar.

For experiment [1], the system named is 3β-hydroxysterol synthesis (cholesterol biosynthesis). In words: Test B. In Vivo Cholesterol Biosynthesis Inhibition Test. Conditions: Rattus norvegicus, ip, 1 h, read-out: ED50 (inhibition of 3β-hydroxysterol synthesis). How it is done:
Test B. In Vivo Cholesterol Biosynthesis Inhibition Test: In vivo studies utilize male Wistar Royal Hart rats weighing 150±20 g. which have been kept for 7-10 days on an altered light cycle (6:30 A.M.-6:30 P.M. dark) housed two per cage and fed powdered Purina Rat Chow and water ad libitum. Three hours before the diurnal maximum of cholesterol synthesis at mid-dark, the rats are administered the test substance (e.g., 0.01-20 mg./kg. body weight) dissolved or as a suspension in 0.5% carboxymethyl-cellulose in a volume of 1 ml./100 g. body weight. Controls receive vehicle alone. One hour after receiving the test substance, the rats are injected intraperitoneally with about 25 μCi/100 g. body weight of sodium [1-^14 C]acetate 1-3 mCi/mmol. Two hours after mid-dark, blood samples are obtained under sodium hexobarbital anesthesia, and the serum is separated by centrifugation. […] The [^14 C]digitonides are then counted by liquid scintillation spectrometry. […] Inhibition of 3β-hydroxysterol synthesis is calculated from the reduction in the nCi of 3β-hydroxysterols formed from test groups compared to controls.

The mark [2] stands for this setting: male Wistar Royal Hart rats, in 0.5% carboxymethyl-cellulose, sodium [1-14C]acetate i.p. one hour after test substance, serum.

The term ED50 denotes the midpoint of the dose-response relation.

In the case of `CCOC(=O)C[C@H](O)C[C@H](O)/C=C/c1c(C(C)C)nc2ccccc2c1-c1ccc(F)cc1` (relative stereo) [Example 3C], the IC50 on HMG-CoA reductase was 410 nM. Also, in experiment [1] (setting [2]), the ED50 was 0.49 mg/kg.

Turning to `CC[C@H](C)C(=O)O[C@H]1CCC=C2C=C[C@H](C)[C@H](CC[C@@H]3C[C@@H](O)CC(=O)O3)[C@H]21` [Compactin, reference compound], in experiment [1] (setting [2]), the ED50 was determined as 3.5 mg/kg.

`CC(C)c1nc2ccccc2c(-c2ccc(F)cc2)c1/C=C/C(O)CC(O)CC(=O)O` (stereo not drawn) [Example 4]: the IC50 on HMG-CoA reductase is 530 nM. In addition, in experiment [1] (setting [2]), the ED50 is more than 1 mg/kg.

In the case of `CC[C@H](C)C(=O)O[C@H]1C[C@@H](C)C=C2C=C[C@H](C)[C@H](CC[C@@H]3C[C@@H](O)CC(=O)O3)[C@H]21` [Mevinolin, reference compound], in experiment [1], the ED50 stood at 0.41 mg/kg.
